Results taken from patent US20240368664A1, “LIVE YEAST BIOSENSORS AND METHODS OF USE THEREOF” (priority 2021, published 2024).
Several values for one entry are separate records, joined by “and”; a condition that tells them apart may be missing. Equal values may be shown once. No end group written: not given here.

Key:
[1] = target: T1, Saccharomyces cerevisiae pheromone GPCR ScSte2 (Saccharomyces cerevisiae) (UniProt D6VTK4); test: cell-based or functional assay
T1 sequence: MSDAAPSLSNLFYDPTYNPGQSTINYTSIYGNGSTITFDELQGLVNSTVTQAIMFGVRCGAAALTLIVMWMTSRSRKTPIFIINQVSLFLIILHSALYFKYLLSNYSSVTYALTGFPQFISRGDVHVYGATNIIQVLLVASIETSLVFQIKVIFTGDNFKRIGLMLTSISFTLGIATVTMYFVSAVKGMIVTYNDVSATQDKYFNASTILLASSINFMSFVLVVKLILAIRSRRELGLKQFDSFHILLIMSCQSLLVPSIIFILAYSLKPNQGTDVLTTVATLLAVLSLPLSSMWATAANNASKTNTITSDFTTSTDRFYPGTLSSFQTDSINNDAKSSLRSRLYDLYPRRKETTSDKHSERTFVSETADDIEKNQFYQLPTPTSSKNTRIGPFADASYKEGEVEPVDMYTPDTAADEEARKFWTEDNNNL

[2] = target: T2, Candida albicans pheromone GPCR CaSte2 (Candida albicans); test: cell-based or functional assay
T2 sequence: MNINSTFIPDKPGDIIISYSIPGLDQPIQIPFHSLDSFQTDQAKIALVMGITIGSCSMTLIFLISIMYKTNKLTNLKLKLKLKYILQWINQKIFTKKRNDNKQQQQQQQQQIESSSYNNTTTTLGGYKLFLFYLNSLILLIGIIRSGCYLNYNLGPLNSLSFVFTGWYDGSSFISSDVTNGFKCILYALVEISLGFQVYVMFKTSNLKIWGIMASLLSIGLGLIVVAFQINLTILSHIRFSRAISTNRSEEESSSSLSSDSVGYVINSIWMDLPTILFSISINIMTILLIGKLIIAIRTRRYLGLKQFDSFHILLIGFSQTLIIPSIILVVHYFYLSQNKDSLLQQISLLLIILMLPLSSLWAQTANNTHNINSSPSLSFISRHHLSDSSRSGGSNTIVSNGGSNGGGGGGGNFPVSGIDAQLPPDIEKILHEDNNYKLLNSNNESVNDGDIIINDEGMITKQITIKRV

[3] = target: ScSte2 with protease ScBar1 (Saccharomyces cerevisiae, UniProt D6VTK4); format: cell-based
Sequence of ScSte2 with protease ScBar1 (D6VTK4 whole entry): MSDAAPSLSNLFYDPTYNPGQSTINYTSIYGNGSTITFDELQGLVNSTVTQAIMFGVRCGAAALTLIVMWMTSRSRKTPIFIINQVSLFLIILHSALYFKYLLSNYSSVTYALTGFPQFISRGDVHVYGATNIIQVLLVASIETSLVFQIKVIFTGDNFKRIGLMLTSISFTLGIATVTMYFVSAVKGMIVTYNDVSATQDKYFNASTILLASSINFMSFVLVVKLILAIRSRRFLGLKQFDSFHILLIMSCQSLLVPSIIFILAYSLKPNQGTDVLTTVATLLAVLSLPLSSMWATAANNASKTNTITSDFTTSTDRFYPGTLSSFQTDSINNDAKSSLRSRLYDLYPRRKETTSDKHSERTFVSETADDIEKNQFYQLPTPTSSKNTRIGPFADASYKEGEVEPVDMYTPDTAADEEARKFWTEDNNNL

[4] = tested on: CaSte2; settings: for Hill Slope: CaSte2 (yTC384), no protease, Hill function best-fit ± standard error; for response of CaSte2 / EC50 compared to the native CaPep: alanine scan, system without CaBar1 (yTC384)
[5] = tested on: CaSte2 with protease CaBar1; settings: CaSte2 + CaBar1 (yBB02); Hill function best-fit ± standard error
[6] = target: ScSte2 (Saccharomyces cerevisiae, UniProt D6VTK4); test: ScSte2 biosensor dose-response, ymTurquoise2 readout, no protease (incl. ScPep alanine scan, yTC391); format: cell-based; settings: Hill function best-fit ± standard error
Sequence of ScSte2 (D6VTK4 whole entry): as above

[7] = target: T3, A. fumigatus pheromone GPCR (AfuSte2) (Aspergillus fumigatus); test: cell-based or functional assay
T3 sequence: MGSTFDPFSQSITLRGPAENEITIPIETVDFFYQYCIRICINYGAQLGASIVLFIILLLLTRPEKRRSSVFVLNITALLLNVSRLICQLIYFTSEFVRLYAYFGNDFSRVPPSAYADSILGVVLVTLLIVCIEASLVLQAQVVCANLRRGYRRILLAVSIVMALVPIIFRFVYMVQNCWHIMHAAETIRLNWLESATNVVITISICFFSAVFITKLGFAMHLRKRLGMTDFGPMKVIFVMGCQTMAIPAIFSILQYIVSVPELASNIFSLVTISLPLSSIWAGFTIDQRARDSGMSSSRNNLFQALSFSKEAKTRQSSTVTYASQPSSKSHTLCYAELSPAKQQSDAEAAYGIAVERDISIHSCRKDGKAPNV

ScPep10A (peptide)
Top [1]: 380 A.U. and 420 A.U.

ScPep1A (peptide)
Top [1]: 320 A.U. and 350 A.U.

CaPep3A (peptide)
Top [2]: 460 A.U.

ScPep3A (peptide)
Top [1]: 280 A.U. and 370 A.U.

WHWLQLKPGQPAY [ScPep12A]
Bottom [3]: 2.5 ± 2.9 A.U. | Hill Slope [3]: 1.3 ± 0.1 | LogEC50 [3]: −6.0 ± 0.1 M | Top [3]: 450 ± 10 A.U.

ScPep9A (peptide)
Top [1]: 370 A.U. and 440 A.U.

GFRLANFGYFEPG [CaPep5A]
Hill Slope [4]: 2.7 ± 0.7 | response of CaSte2 [4]: practically non-responsive

Smt3-Scα-Smt3 (two Smt3 fused in tandem with an α-factor linker, N-terminus 6x-His-tag) (from UniProt Q12306 1-98; Q12306 2-98)
EC50 (mCherry/OD600) [1]: 1080 nM

ScPep5A (peptide)
Top [1]: 380 A.U. and 340 A.U.

Smt3-Scα (α-factor fused to the C-terminus of full-length Smt3, 6x-His-tag at the opposite terminus) (from UniProt Q12306 1-98)
EC50 (mCherry/OD600) [1]: 208 nM

ScPep11A (peptide)
Top [1]: 410 A.U.

GFRLTNFGAFEPG [CaPep9A]
Hill Slope [4]: 1.9 ± 0.1 | Hill Slope [5]: 1.7 ± 0.2

WHWLQLKPGQAMY [ScPep11A]
Hill Slope [6]: 4.6 ± 1.3 | Bottom [3]: 8.0 ± 2.5 A.U. | Hill Slope [3]: 1.5 ± 0.1 | LogEC50 [3]: −5.6 ± 0.1 M | Top [3]: 410 ± 10 A.U.

WHWLQLAPGQPMY [ScPep7A]
Hill Slope [6]: 2.6 ± 0.4 | Bottom [3]: 5.7 ± 1.3 A.U. | Hill Slope [3]: 1.7 ± 0.1 | LogEC50 [3]: −5.4 ± 0.1 M | Top [3]: 380 ± 10 A.U.

CaPep4A (peptide)
LogEC50 [2]: -6.5 log M and -6.1 log M | Top [2]: 460 A.U. and 410 A.U.

WHWLALKPGQPMY [ScPep5A]
Hill Slope [6]: 3.4 ± 0.3 | Bottom [3]: 0.52 ± 8.7 A.U. | Hill Slope [3]: 1.2 ± 0.2 | LogEC50 [3]: −6.3 ± 0.1 M | Top [3]: 340 ± 10 A.U.

WHWLQAKPGQPMY [ScPep6A]
Hill Slope [6]: 5.6 ± 0.7 | Bottom [3]: 0.38 ± 5.71 A.U. | Hill Slope [3]: 0.99 ± 0.10 | LogEC50 [3]: −5.5 ± 0.1 M | Top [3]: 390 ± 10 A.U.

ScPep13A (peptide)
Top [1]: 360 A.U. and 490 A.U.

ScPep7A (peptide)
Top [1]: 400 A.U. and 380 A.U.

GFRATNFGYFEPG [CaPep4A]
Hill Slope [4]: 1.3 ± 0.1 | Hill Slope [5]: 2.4 ± 0.4

GFRLTNFGAAEPG [9A10A]
Hill Slope [4]: 0.99 ± 0.04 | EC50 compared to the native CaPep [4]: more than two orders of magnitude higher EC50 | Hill Slope [5]: 1.0 ± 0.1

GFRLTNFGYFAPG [CaPep11A]
Hill Slope [5]: 1.5 ± 0.2

GFALTNFGYFEPG [CaPep3A]
Hill Slope [4]: 2.0 ± 0.1 | Hill Slope [5]: 0.74 ± 0.08

synthetic A. fumigatus pheromone peptide (AfuPep)
EC50, GFP of the sender strain [7]: 4 nM | EC50, mCherry reporter in yeast [7]: 100 nM | EC50, mCherry, fine-tuned optimized strain [7]: 40 nM | EC50, mCherry, strain with natural signaling pathway [7]: 10 nM | LoD, lycopene readout, yTC590 [7]: 50 nM | activation fold change, fine-tuned optimized strain [7]: 2900 fold | activation fold change, strain with natural signaling pathway [7]: 19 fold | fold change of fluorescence readout [7]: 4000 fold | limit of detection (LoD), lycopene readout, yTC527 [7]: 30 nM | maximal activation, mCherry, fine-tuned optimized strain [7]: 2900 A.U. | maximal activation, mCherry, strain with natural signaling pathway (yMJ194) [7]: 450 A.U.

GFRLTNFAYFEPG [CaPep8A]
Hill Slope [4]: 1.3 ± 0.3 | Hill Slope [5]: 1.0 ± 0.1

CaPep1A (peptide)
Top [2]: 460 A.U. and 410 A.U.

WHWLQLKPGQPMA [ScPep13A]
Hill Slope [6]: 8.2 ± 3.1 | Bottom [3]: 4.6 ± 2.5 A.U. | Hill Slope [3]: 1.2 ± 0.1 | LogEC50 [3]: −5.1 ± 0.1 M | Top [3]: 490 ± 10 A.U.

CaPep9A (peptide)
Top [2]: 700 A.U. and 480 A.U.

C. albicans pheromone peptide (CaPep)
EC50, lycopene readout, strains preincubated, +CaBar1 [2]: 4 µM | EC50, ymTurquoise2, biosensor with CaBar1 (pRPL18B) [2]: 90 nM | EC50, ymTurquoise2, biosensor without protease [2]: 7 nM | LogEC50 [2]: -7.2 log M | Top [2]: 460 A.U. and 420 A.U.

WHWLQLKAGQPMY [ScPep8A]
Hill Slope [6]: 2.7 ± 0.1 | Bottom [3]: 4.6 ± 2.6 A.U. | Hill Slope [3]: 1.1 ± 0.1 | LogEC50 [3]: −5.6 ± 0.1 M | Top [3]: 440 ± 10 A.U.

CaPep2A13A (peptide)
EC50, ymTurquoise2, strain with the protease CaBar1 [2]: 70 nM | EC50, ymTurquoise2, strain without the protease [2]: 50 nM | LogEC50 [2]: -7 log M and -6.5 log M | Top [2]: 790 A.U. and 680 A.U.

CaPep8A (peptide)
Top [2]: 640 A.U. and 460 A.U.

WHALQLKPGQPMY [ScPep3A]
Hill Slope [6]: 2.5 ± 0.1 | Bottom [3]: 6.4 ± 2.6 A.U. | Hill Slope [3]: 0.74 ± 0.05 | LogEC50 [3]: −4.6 ± 0.1 M | Top [3]: 370 ± 20 A.U.

ScPep2A (peptide)
Top [1]: 270 A.U. and 350 A.U.

GFRLTNFGYFEAA [12A13A]
Hill Slope [4]: 2.8 ± 0.1 | EC50 compared to the native CaPep [4]: more than two orders of magnitude higher EC50 | Hill Slope [5]: 1.8 ± 0.1

CaPep5A (peptide)
LogEC50 [2]: -5.2 log M and -4.9 log M | Top [2]: 15 A.U. and 13 A.U.

WHWLQLKPAQPMY [ScPep9A]
Hill Slope [6]: 5.0 ± 1.3 | Bottom [3]: 3.7 ± 2.1 A.U. | Hill Slope [3]: 1.2 ± 0.1 | LogEC50 [3]: −4.8 ± 0.2 M | Top [3]: 440 ± 10 A.U.

GFRLTNFGYFEAG [12A]
Hill Slope [4]: 0.95 ± 0.04 | EC50 compared to the native CaPep [4]: more than two orders of magnitude higher EC50 | Hill Slope [5]: 1.1 ± 0.1

ScPep4A (peptide)
Top [1]: 250 A.U. and 340 A.U.

AFRLTNFGYFEPG [CaPep1A]
Hill Slope [4]: 3.0 ± 0.4 | Hill Slope [5]: 1.1 ± 0.22

GFRLTNFGYAEPG [CaPep10A]
Hill Slope [4]: 2.8 ± 0.5 | EC50 compared to the native CaPep [4]: more than two orders of magnitude higher EC50 | Hill Slope [5]: 2.6 ± 0.13

WHWLQLKPGAPMY [ScPep10A]
Hill Slope [6]: 5.3 ± 3.7 | Bottom [3]: 8.3 ± 1.6 A.U. | Hill Slope [3]: 1.8 ± 0.1 | LogEC50 [3]: −5.2 ± 0.1 M | Top [3]: 420 ± 10 A.U.

S. cerevisiae pheromone peptide (ScPep)
EC50 (mCherry/OD600) [1]: 2 nM | Top [1]: 380 A.U. and 390 A.U.

CaPep7A (peptide)
LogEC50 [2]: -5.5 log M and -5.6 log M | Top [2]: 34 A.U. and 17 A.U.

ScPep8A (peptide)
Top [1]: 430 A.U. and 440 A.U.

CaPep6A (peptide)
LogEC50 [2]: -6.2 log M and -5.9 log M | Top [2]: 570 A.U. and 450 A.U.

ScPep12A (peptide)
Top [1]: 410 A.U. and 450 A.U.

AHWLQLKPGQPMY [ScPep1A]
Hill Slope [6]: 3.4 ± 0.8 | Bottom [3]: −3.1 ± 5.8 A.U. | Hill Slope [3]: 0.76 ± 0.06 | LogEC50 [3]: −5.9 ± 0.1 M | Top [3]: 350 ± 10 A.U.

WHWAQLKPGQPMY [ScPep4A]
Bottom [3]: −1.6 ± 2.9 A.U. | Hill Slope [3]: 0.72 ± 0.04 | LogEC50 [3]: −5.4 ± 0.1 M | Top [3]: 340 ± 10 A.U.

WAWLQLKPGQPMY [ScPep2A]
Hill Slope [6]: 3.7 ± 0.2 | Bottom [3]: 5.9 ± 3.0 A.U. | Hill Slope [3]: 1.5 ± 0.1 | LogEC50 [3]: −5.0 ± 0.1 M | Top [3]: 350 ± 10 A.U.

GFRLTNAGYFEPG [7A]
Hill Slope [4]: 1.4 ± 0.1 | response of CaSte2 [4]: practically non-responsive | Hill Slope [5]: 2.2 ± 0.4

Scα-Smt3 (α-factor fused to the N-terminus of full-length Smt3, 6x-His-tag at the opposite terminus) (from UniProt Q12306 2-98)
EC50 (mCherry/OD600) [1]: 149 nM

GFRLTAFGYFEPG [CaPep6A]
Hill Slope [4]: 4.4 ± 0.4 | Hill Slope [5]: 1.7 ± 0.2

ScPep6A (peptide)
Top [1]: 310 A.U. and 390 A.U.
